# Measured values published in DBAASP.
# What was measured:
# Experiment in all cases: ≥ marks a high value that may be exact or a test limit, other limits are often not marked, values filed in µg/mL are converted to µM
# Micrococcus luteus = test system: Micrococcus luteus
# Escherichia coli SBS 363 = test system: Escherichia coli SBS 363
# [1] = test system: Staphylococcus aureus ATCC 29213
# Escherichia coli JW0013 = test system: Escherichia coli JW0013
# Escherichia coli UB1005 = test system: Escherichia coli UB1005
# [2] = test system: Escherichia coli ATCC 25922
# [3] = test system: Staphylococcus epidermidis C621
# [4] = test system: Enterococcus faecalis ATCC 29212
# [5] = test system: Staphylococcus aureus ATCC 25923
# [6] = test system: Pseudomonas aeruginosa ATCC 27853
# [7] = test system: Bacillus subtilis ATCC 6633
structure (smiles),measurement,setting,value
CC[C@H](C)[C@@H]1NC(=O)[C@H](CO)NC(=O)[C@H](CCCCN)NC(=O)[C@@H]2CSSC[C@@H](C(=O)N[C@@H](CC(=O)O)C(=O)NCC(=O)N[C@@H](CCC(N)=O)C(=O)N[C@H](C(=O)N[C@H](C(=O)N[C@H](C(=O)N[C@@H](CC(N)=O)C(=O)N[C@@H](CO)C(=O)N[C@H]3CSSC[C@@H]4NC(=O)[C@H](CCCN=C(N)N)NC(=O)CNC(=O)[C@H](Cc5ccccc5)NC(=O)[C@H](CCCCN)NC(=O)[C@H](CCCN=C(N)N)NC(=O)[C@H](CCCCN)NC(=O)[C@H](CSSC[C@@H](C(=O)N[C@@H](Cc5ccccc5)C(=O)N[C@@H](Cc5ccccc5)C(=O)O)NC(=O)[C@H](CCC(=O)O)NC(=O)[C@H]([C@@H](C)O)NC(=O)[C@H]([C@@H](C)CC)NC(=O)[C@H](Cc5ccccc5)NC(=O)CNC(=O)[C@H](CC(=O)O)NC(=O)[C@H](CO)NC4=O)NC(=O)[C@H](CC(=O)O)NC(=O)[C@H](CCC(=O)O)NC3=O)[C@@H](C)CC)[C@@H](C)O)[C@@H](C)O)NC(=O)[C@H](CO)NC(=O)[C@H](C(C)C)NC(=O)CNC(=O)[C@H](CCCCN)NC(=O)[C@H](CCCN=C(N)N)NC(=O)[C@H](CC(N)=O)NC(=O)[C@H](CC(C)C)NC(=O)[C@H](Cc3ccc(O)cc3)NC(=O)CNC(=O)[C@H](Cc3ccc(O)cc3)NC(=O)CNC(=O)[C@H](CSSC[C@H](NC(=O)[C@@H](NC(=O)[C@@H]3CCCN3C(=O)[C@H](C)NC(=O)[C@H](Cc3ccc(O)cc3)NC(=O)[C@H](C)NC(=O)[C@H](Cc3ccccc3)NC(=O)[C@@H](NC(=O)[C@@H](N)CCSC)C(C)C)[C@@H](C)O)C(=O)N[C@@H](C)C(=O)N[C@@H](CCCN=C(N)N)C(=O)N2)NC(=O)[C@H](Cc2ccc(O)cc2)NC(=O)[C@H](CCCN=C(N)N)NC(=O)[C@H](C)NC(=O)CNC1=O [MVFAYAPTCARCKSIGARYCGYGYLNRKGVSCDGQTTINSCEDCKRKFGRCSDGFITECFF],MIC,Micrococcus luteus,≥ 100 µM
same,MIC,Escherichia coli SBS 363,≥ 35.4 µM
CC[C@H](C)[C@H](NC(=O)[C@H](C)NC(=O)[C@H](CCC(N)=O)NC(=O)[C@H](Cc1cnc[nH]1)NC(=O)CNC(=O)[C@H](CCSC)NC(=O)[C@@H]1CCCN1C(=O)[C@H](CCCN=C(N)N)NC(=O)CNC(=O)[C@@H]1CSSC[C@@H]2NC(=O)[C@H](CC(N)=O)NC(=O)[C@H](Cc3cnc[nH]3)NC(=O)[C@H](CCCCN)NC(=O)[C@H](CC(=O)O)NC(=O)[C@H](CC(N)=O)NC(=O)[C@H]([C@@H](C)O)NC(=O)[C@@H]3CSSC[C@H](NC(=O)[C@H](CCCCN)NC(=O)[C@H](CC(C)C)NC(=O)[C@H](CCCCN)NC(=O)[C@H](Cc4ccccc4)NC(=O)[C@H](CC(C)C)NC(=O)CNC(=O)[C@H](CCCCN)NC(=O)[C@H](CCCN=C(N)N)NC(=O)[C@H](CSSC[C@H](NC(=O)[C@@H](N)CO)C(=O)N[C@@H]([C@@H](C)CC)C(=O)N4CCC[C@H]4C(=O)N[C@@H](CCCCN)C(=O)N[C@@H](Cc4cnc[nH]4)C(=O)N[C@@H](CCC(=O)O)C(=O)N[C@@H](CCC(=O)O)C(=O)N3)NC2=O)C(=O)N[C@@H](CCC(N)=O)C(=O)N[C@H]2CSSC[C@H](NC(=O)[C@H](CCCN=C(N)N)NC(=O)[C@H](CCC(=O)O)NC(=O)[C@H]([C@@H](C)O)NC(=O)[C@@H]3CCCN3C(=O)[C@H](CCC(N)=O)NC(=O)CNC(=O)[C@H](CO)NC(=O)[C@H](CCC(=O)O)NC(=O)[C@H](CC(=O)O)NC(=O)[C@H](CC(=O)O)NC(=O)[C@H](Cc3ccccc3)NC(=O)[C@H]([C@@H](C)O)NC(=O)[C@H](CO)NC2=O)C(=O)N[C@@H](C)C(=O)N1)C(=O)N[C@@H](CCC(=O)O)C(=O)N[C@H](C(=O)NCC(=O)N[C@@H](CC(C)C)C(=O)N[C@@H](CC(N)=O)C(=O)N[C@H](C(=O)N[C@@H](Cc1ccccc1)C(=O)N[C@@H](CCCN=C(N)N)C(=O)NCC(=O)N[C@@H](CC(C)C)C(=O)N[C@@H](Cc1ccccc1)C(=O)N[C@@H](CCCCN)C(=O)NCC(=O)N[C@@H](CCCCN)C(=O)N[C@@H](CCCCN)C(=O)N[C@@H](CCCCN)C(=O)N[C@@H](CC(N)=O)C(=O)N[C@@H](CCCCN)C(=O)N[C@@H](CCCCN)C(=O)N[C@H](C(=O)N[C@@H](CCCCN)C(N)=O)[C@@H](C)O)[C@@H](C)CC)[C@@H](C)O [SCIPKHEECTNDKHNCCRKGLFKLKCQCSTFDDESGQPTERCACGRPMGHQAIETGLNIFRGLFKGKKKNKKTK],MIC,Escherichia coli SBS 363,22.1 µM
same,MIC,[1],> 250 µM
CC[C@H](C)[C@H](NC(=O)[C@H](CCCN=C(N)N)NC(=O)[C@H](CCCN=C(N)N)NC(=O)[C@@H]1CCCN1C(=O)[C@@H]1CCCN1C(=O)[C@H](CCCN=C(N)N)NC(=O)[C@@H]1CCCN1C(=O)[C@@H](NC(=O)[C@@H]1CCCN1C(=O)[C@H](CC(C)C)NC(=O)[C@H](Cc1ccc(O)cc1)NC(=O)[C@@H]1CCCN1C(=O)[C@@H]1CCCN1C(=O)[C@H](CCCCN)NC(=O)[C@H](CC(=O)O)NC(=O)[C@@H](N)C(C)C)[C@@H](C)O)C(=O)N[C@@H](Cc1ccc(O)cc1)C(=O)N[C@@H](CC(N)=O)C(=O)N[C@@H](CCCN=C(N)N)C(N)=O [VDKPPYLPTPRPPRRIYNR],MIC,Escherichia coli JW0013,2.06 µM
CC[C@H](C)[C@H](NC(=O)[C@H](CCCN=C(N)N)NC(=O)[C@@H](N)CCCN=C(N)N)C(=O)N[C@@H](CCCCN)C(=O)N1CCC[C@H]1C(=O)N[C@@H](CCCN=C(N)N)C(=O)N1CCC[C@H]1C(=O)N1CCC[C@H]1C(=O)N[C@@H](CCCN=C(N)N)C(=O)N[C@@H](CC(C)C)C(=O)N1CCC[C@H]1C(=O)N[C@@H](CCCN=C(N)N)C(=O)N1CCC[C@H]1C(=O)N[C@@H](CCCN=C(N)N)C(=O)N1CCC[C@H]1C(=O)N[C@@H](CCCN=C(N)N)C(=O)O [RRIKPRPPRLPRPRPR],MIC,Escherichia coli JW0013,0.24 µM
C[C@H](NC(=O)[C@H](C)NC(=O)[C@H](Cc1c[nH]c2ccccc12)NC(=O)[C@H](C)NC(=O)[C@H](C)NC(=O)[C@H](Cc1c[nH]c2ccccc12)NC(=O)[C@H](C)NC(=O)[C@H](C)NC(=O)[C@H](Cc1c[nH]c2ccccc12)NC(=O)[C@H](C)NC(=O)[C@H](C)NC(=O)[C@H](CCCCN)NC(=O)[C@H](CCCCN)NC(=O)[C@H](CCCCN)NC(=O)[C@H](CCCCN)NC(=O)[C@H](CCCCN)NC(=O)[C@@H](N)CCCCN)C(N)=O [KKKKKKAAWAAWAAWAA],MIC,Escherichia coli UB1005,1 µM
same,MIC,[2],8 µM
same,MIC,[3],8 µM
same,MIC,[4],> 32 µM
same,MIC,[5],32 µM
same,MIC,[6],8 µM
same,MIC,[7],4 µM
CC[C@H](C)[C@H](NC(=O)[C@H](Cc1ccc(O)cc1)NC(=O)[C@@H](NC(=O)[C@@H]1CCCN1C(=O)[C@H](CCCCN)NC(=O)[C@H](CC(N)=O)NC(=O)[C@H](CC(N)=O)NC(=O)CN)C(C)C)C(=O)N1CCC[C@H]1C(=O)N[C@@H](CCC(N)=O)C(=O)N1CCC[C@H]1C(=O)N[C@@H](CCCN=C(N)N)C(=O)N1CCC[C@H]1C(=O)N1CCC[C@H]1C(=O)N[C@@H](Cc1cnc[nH]1)C(=O)N1CCC[C@H]1C(=O)N[C@@H](CCCN=C(N)N)C(=O)N[C@@H](CC(C)C)C(=O)O [GNNKPVYIPQPRPPHPRL],MIC,Escherichia coli JW0013,0.3 µM
CC[C@H](C)[C@H](NC(=O)[C@H](CCCN=C(N)N)NC(=O)[C@H](CCCN=C(N)N)NC(=O)[C@@H]1CCCN1C(=O)[C@@H]1CCCN1C(=O)[C@H](CCCN=C(N)N)NC(=O)[C@@H]1CCCN1C(=O)[C@H](CCCN=C(N)N)NC(=O)[C@@H]1CCCN1C(=O)[C@H](CC(C)C)NC(=O)[C@H](Cc1ccc(O)cc1)NC(=O)[C@@H]1CCCN1C(=O)[C@@H]1CCCN1C(=O)[C@H](CCCCN)NC(=O)[C@H](CC(=O)O)NC(=O)[C@@H](N)CCC(N)=O)C(=O)N[C@@H](Cc1ccc(O)cc1)C(=O)N[C@@H](CC(N)=O)C(=O)N[C@@H](CCCN=C(N)N)C(N)=O [QDKPPYLPRPRPPRRIYNR],MIC,Escherichia coli JW0013,1.98 µM
CC[C@H](C)[C@H](NC(=O)[C@H](CCCN=C(N)N)NC(=O)[C@H](CCCN=C(N)N)NC(=O)[C@@H]1CCCN1C(=O)[C@@H]1CCCN1C(=O)[C@H](CCCN=C(N)N)NC(=O)[C@H](Cc1c[nH]c2ccccc12)NC(=O)[C@H](CCCN=C(N)N)NC(=O)[C@@H]1CCCN1C(=O)[C@H](CC(C)C)NC(=O)[C@H](Cc1ccc(O)cc1)NC(=O)[C@@H]1CCCN1C(=O)[C@@H]1CCCN1C(=O)[C@H](CCCCN)NC(=O)[C@H](CC(=O)O)NC(=O)[C@@H](N)C(C)C)C(=O)N[C@@H](Cc1ccc(O)cc1)C(=O)N[C@@H](CC(N)=O)C(=O)N[C@@H](CCCN=C(N)N)C(N)=O [VDKPPYLPRWRPPRRIYNR],MIC,Escherichia coli JW0013,1.94 µM
CC[C@H](C)[C@H](NC(=O)[C@H](CCCN=C(N)N)NC(=O)[C@@H](N)CCCN=C(N)N)C(=O)N[C@@H](CCCN=C(N)N)C(=O)N1CCC[C@H]1C(=O)N[C@@H](CCCN=C(N)N)C(=O)N[C@@H](CCCN=C(N)N)C(=O)N1CCC[C@H]1C(=O)N[C@@H](CCCN=C(N)N)C(=O)N[C@@H](CC(C)C)C(=O)N1CCC[C@H]1C(=O)N[C@@H](CCCN=C(N)N)C(=O)N1CCC[C@H]1C(=O)N[C@@H](CCCN=C(N)N)C(=O)N1CCC[C@H]1C(=O)N[C@@H](CCCN=C(N)N)C(=O)O [RRIRPRRPRLPRPRPR],MIC,Escherichia coli JW0013,0.3 µM
CC[C@H](C)[C@H](NC(=O)[C@H](CCCN=C(N)N)NC(=O)[C@H](CCCN=C(N)N)NC(=O)[C@@H]1CCCN1C(=O)[C@@H]1CCCN1C(=O)[C@H](CCCN=C(N)N)NC(=O)[C@H](CCCN=C(N)N)NC(=O)[C@H](CCCN=C(N)N)NC(=O)[C@@H]1CCCN1C(=O)[C@H](CCCN=C(N)N)NC(=O)[C@H](Cc1ccc(O)cc1)NC(=O)[C@@H]1CCCN1C(=O)[C@H](CCCN=C(N)N)NC(=O)[C@H](CCCCN)NC(=O)[C@H](CC(=O)O)NC(=O)[C@@H](N)C(C)C)C(=O)N[C@@H](Cc1ccc(O)cc1)C(=O)N[C@@H](CC(N)=O)C(=O)N[C@@H](CCCN=C(N)N)C(N)=O [VDKRPYRPRRRPPRRIYNR],MIC,Escherichia coli JW0013,0.941 µM
